From US10588978B2, “Pharmaceutical composition containing imidazoline derivative” (priority 2016, dated 2020)
Read-outs that look alike come from different tables or passages of the source.

Assays:
AIPC [1] = conditions: mouse; cited from earlier work
AIPC [2] = conditions: human; cited from earlier work
tumor cell growth = conditions: cited from earlier work
[3] = Studies on stability of the compound; type: physicochemical
[4] = Solubility of the compound in compositions with conventional auxiliaries; type: physicochemical
[5] = test system: five major subtypes of CYP450; conditions: all five subtypes; read-out: inhibition half lives on five major subtypes of CYP450; cited from earlier work
[6] = same dose, same solvent; cited from earlier work
[7] = same dose, same solvent; cited from earlier work; remark: listed apart in the source
AR [8] = molecular target: T1, AR (Homo sapiens, UniProt P10275); conditions: cited from earlier work
T1 sequence (P10275 1-920): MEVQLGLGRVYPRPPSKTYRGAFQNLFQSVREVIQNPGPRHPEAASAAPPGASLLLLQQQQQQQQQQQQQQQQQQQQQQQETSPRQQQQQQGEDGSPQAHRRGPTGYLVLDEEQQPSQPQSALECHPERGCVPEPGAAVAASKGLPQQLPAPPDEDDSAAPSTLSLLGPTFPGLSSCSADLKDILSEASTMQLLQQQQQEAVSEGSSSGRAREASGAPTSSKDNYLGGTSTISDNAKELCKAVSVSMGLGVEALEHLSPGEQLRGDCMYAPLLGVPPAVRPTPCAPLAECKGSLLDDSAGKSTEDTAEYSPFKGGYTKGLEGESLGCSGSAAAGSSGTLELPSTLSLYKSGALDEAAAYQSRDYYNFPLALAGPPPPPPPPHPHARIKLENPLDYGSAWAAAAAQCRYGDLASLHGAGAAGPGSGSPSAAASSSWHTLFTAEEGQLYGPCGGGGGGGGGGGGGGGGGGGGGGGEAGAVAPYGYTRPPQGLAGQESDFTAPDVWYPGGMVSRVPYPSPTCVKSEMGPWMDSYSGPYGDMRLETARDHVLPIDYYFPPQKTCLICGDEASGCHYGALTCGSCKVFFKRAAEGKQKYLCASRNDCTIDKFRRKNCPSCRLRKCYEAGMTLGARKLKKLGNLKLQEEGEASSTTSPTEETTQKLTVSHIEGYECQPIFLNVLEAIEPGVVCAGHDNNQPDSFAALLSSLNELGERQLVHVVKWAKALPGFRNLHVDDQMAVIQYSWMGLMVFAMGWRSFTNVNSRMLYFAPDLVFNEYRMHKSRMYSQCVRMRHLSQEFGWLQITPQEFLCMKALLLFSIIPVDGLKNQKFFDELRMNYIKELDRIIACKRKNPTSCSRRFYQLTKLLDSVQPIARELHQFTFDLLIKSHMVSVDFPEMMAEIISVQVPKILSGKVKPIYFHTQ

[9] = mice; relative to MDV-3100; cited from earlier work
AR [10] = molecular target: T1, AR; conditions: cited from earlier work; remark: listed apart in the source

## CNC(=O)c1ccc(N2C(=S)N(c3ccc(C#N)c(C(F)(F)F)c3)C(=O)C2(C)C)cc1F [MDV-3100]
AIPC [1]
  inhibition of growth of AIPC: can inhibit the growth of AIPC
AIPC [2]
  inhibition of growth of AIPC: can inhibit the growth of AIPC
Tumor cell growth
  effect of promoting tumor cell growth: no effect of promoting tumor cell growth

## CC1(C)C(=O)N(c2ccc(C#N)c(C(F)(F)F)c2)C(=S)N1c1ccc(OC[C@@H](O)CO)cc1 [compound of formula (I), (S)-4-(3-(4-(2,3-dihydroxypropoxy)phenyl)-4,4-dimethyl-5-carbonyl-2-thioimidazolin-1-yl)-2-(trifluoromethyl)benzonitrile]
[3]
  stability of the compound: poor stability
[4]
  solubility in compositions prepared with conventional auxiliaries: poorly soluble
[5]
  IC50: > 50 µM
[6]
  in vivo exposure in rats relative to MDV-3100: comparable to that of MDV-3100
[7]
  in vivo exposure in dogs relative to MDV-3100: more than six times that of MDV-3100
AR [8]; at 3 μM
  AR agonist activity: no AR agonist activity
AR [8]; at 10 μM
  AR agonist activity: no AR agonist activity
[9]
  ratio of the drug concentration in brain tissue to the drug concentration in plasma: much lower than that of MDV-3100
AR [10]
  activity in vitro relative to MDV-3100: slightly better than that of MDV-3100
